# Results published in paper PMC6495379, “Reiterative Synthesis by the Ribosome and Recognition of the N-Terminal Formyl Group by Biosynthetic Machinery Contribute to Evolutionary Conservation of the Length of Antibiotic Microcin C Peptide Precursor” (mBio, 2019).
# * marks the point of attachment. For = O=C*
# Tests used:
# E. coli MccB = experiment: In vitro adenylation of MccA peptides by MccB, HPLC read-out; assay type: biochemical, Escherichia coli; details: 500 μM peptide, 5 μM MccB, 28°C, 20 min, HPLC 260 nm; for Yield of adenylated peptide (unformylated peptides): ATP
# Experimental: In previous work, it was shown that E. coli MccB is able to modify a wide range of substrates in vivo and in vitro, including MBP protein with attached A7 peptide ([14]). To test MccB activity on elongated substrates encoded by pA11 and pA15, we incubated purified MccB with ATP and chemically synthesized A11 and A15 peptides and measured adenylated peptide yields by high-pressure liquid chromatography (HPLC) (Fig. 6). […] We next repeated the experiment with N-terminally formylated versions of each peptide that correspond to the products of ribosomal synthesis. […] We conclude that under our conditions, the presence of the formyl group on the N-terminal methionine residue selectively amplified the yields of MccA heptapeptide adenylation compared to adenylation yields of longer peptides A11 and A15.
# FIG 6 In vitro adenylation of MccA peptides of different lengths by MccB. HPLC traces (260 nm) showing product formation after incubation of equal molar amounts of A7 (MRTGNAN), A11 (MGGGMRTGNAN), and A15 (MASTAGGGMRTGNAN) peptides and their N-terminally formylated variant peptides (marked with the f prefix) with MccB in the reaction buffer for 20 min at 28°C.
# For adenylation efficiency measurements, 500 μM peptide was incubated with 5 μM MccB at 28°C for 20 min, and then the reaction was quenched with 0,1% TFA and analyzed using C18 reversed-phase chromatography (Symmetry C18, 5 μm, 4.6 mm by 150 mm; Waters). A 0% to 15% linear gradient of acetonitrile in 0.1% TFA was applied for elution. The identities of the compounds in the chromatographic fractions were confirmed by MALDI-TOF MS.
# some strains of E. coli = details: cited from earlier work
# From the text: Thus, the minimal set of three genes in an mcc cluster, encoding the precursor peptide, the adenylating enzyme, and the export pump protein, should be sufficient for production of McC-like antibacterial compounds. Bioinformatics searches reveal that genes coding for MccB-like proteins can be found in various bacteria that are phylogenetically distant from E. coli ([10]).
# [1] = formylated versus unformylated peptide
Substance,"Decrease in adenylated product yield on N-terminal formylation, compared to the unformylated peptide (E. coli MccB; [1]) [fold]",Yield of adenylated peptide (unformylated peptides) (E. coli MccB),"Increase in adenylated product yield on N-terminal formylation, compared to the unformylated peptide (E. coli MccB; [1])","Increase in adenylated product yield on N-terminal formylation, compared to the unformylated peptide (E. coli MccB; formylated versus unformylated peptide, listed as heptapeptide MccA) [fold]",Increase of toxicity of McC by the aminopropyl moiety (some strains of E. coli)
"MASTAGGGMRTGNAN [A15, 15-amino-acid MccA-based peptide […]]",~3,comparable yields,–,–,–
"MGGGMRTGNAN [A11, 11-amino-acid MccA-based peptide […]]",–,comparable yields,~2 fold,–,–
"MRTGNAN [A7, 7-amino-acid McC precursor peptide MRTGNAN, chemically synthesized]",–,comparable yields,approximately 8 fold,~10,–
"Microcin C (For-MRTGNAN-{adenylate (N-P bond, aminopropyl on phosphoramidate)}) [McC, heptapeptide adenylate antibiotic, formylated, with aminopropyl on the phosphoramidate]",–,–,–,–,4- to 10 fold
